In patent publication US9890133B2 (priority 2011, dated 2018) one finds EC50 and CC50 data, which are given here for 10 molecules.

SMILES strings stand for the structures. Converted amounts (≈) assume the structure as drawn.

By EC50 is commonly meant the concentration that produces a half-maximal response.

One data set deals with Poliovirus 3. Nature of the data set: microbe, parasite or virus in culture. It counts as cell-based. The following applies: Enterovirus C, read-out: Poliovirus3 EC50.
A further data set is described as follows: in vitro. The following applies: human.

Turning to `CC(C)c1ccc2c(c1)OC1(O)c3cccc(N)c3C(=O)C21NC(=O)c1nccc2ccccc12` (stereo not drawn) [Example 266, N-(1-Amino-4b-hydroxy-7-isopropyl-10-oxo-9b,10-dihydro-4bH-benzo[d]indeno[1,2-b]furan-9b-yl)isoquinoline-1-carboxamide], in the data set with Poliovirus 3, the EC50 is less than 0.01 µg/mL. Besides, the CC50 was more than 10 µg/mL in the data set “in vitro” and 6.41 µg/mL (≈ 13.8 µM) in “in vitro” (Picorana CC50).

`CC(C)c1ccc2c(c1)OC1(O)c3cccc(N)c3C(=O)C21NC(=O)c1cc2ccccc2n1C` (stereo not drawn) [Example 268, N-(1-Amino-4b-hydroxy-7-isopropyl-10-oxo-9b,10-dihydro-4bH-indeno[1,2-b]benzofuran-9b-yl)-1-methyl-1H-indole-2-carboxamide]: the EC50 in the data set on Poliovirus 3 came to 0.036 µg/mL (≈ 0.077 µM). Moreover, the CC50 in the data set “in vitro” was more than 10 µg/mL; in the data set “in vitro” (Picorana CC50), 9.28 µg/mL (≈ 19.8 µM).

On to `Cc1nn(C)c2ncc(C(=O)NC34C(=O)c5c(N)cccc5C3(O)Oc3cc(C(C)C)ccc34)cc12` (stereo not drawn) [Example 271, N-(1-Amino-4b-hydroxy-7-isopropyl-10-oxo-9b,10-dihydro-4bH-indeno[1,2-b]benzofuran-9b-yl)-1,3-dimethyl-1H-pyrazolo[3,4-b]pyridine-5-carboxamide], for which, in the data set with Poliovirus 3, the EC50 was less than 0.01 µg/mL. Also, the CC50 in “in vitro” was more than 10 µg/mL.

In the case of `CC(C)c1ccc2c(c1)OC1(O)c3cccc(N)c3C(=O)C21NC(=O)c1ccc2nccn2c1` (stereo not drawn) [Example 272, N-(1-Amino-4b-hydroxy-7-isopropyl-10-oxo-9b,10-dihydro-4bH-indeno[1,2-b]benzofuran-9b-yl)imidazo[1,2-a]pyridine-6-carboxamide], the EC50 with Poliovirus 3 was less than 0.01 µg/mL. The molecule further gave a CC50 in “in vitro” of more than 10 µg/mL.

Consider `CC(C)c1ccc2c(c1)OC1(O)c3cccc(N)c3C(=O)C21NC(=O)c1cc2ncccn2n1` (stereo not drawn) [Example 273, N-(1-Amino-4b-hydroxy-7-isopropyl-10-oxo-9b,10-dihydro-4bH-indeno[1,2-b]benzofuran-9b-yl)pyrazolo[1,5-a]pyrimidine-2-carboxamide], for which the EC50 in the data set on Poliovirus 3 was less than 0.01 µg/mL. The molecule also came in with a CC50 in the data set “in vitro” of more than 10 µg/mL.

As to `Cc1c(C(=O)NC23C(=O)c4c(N)cccc4C2(O)Oc2cc(C(C)C)ccc23)sc2ccccc12` (stereo not drawn) [Example 274, N-(1-Amino-4b-hydroxy-7-isopropyl-10-oxo-9b,10-dihydro-4bH-indeno[1,2-b]benzofuran-9b-yl)-3-methylbenzo[b]thiophene-2-carboxamide], in the data set on Poliovirus 3, the EC50 was found to be 0.036 µg/mL (≈ 0.0743 µM). In addition, the CC50 in the data set “in vitro” is more than 10 µg/mL.

For the molecule `CC(C)c1ccc2c(c1)OC1(O)c3cccc(N)c3C(=O)C21NC(=O)c1cnc2ccccc2n1` (stereo not drawn) [Example 275, N-(1-Amino-4b-hydroxy-7-isopropyl-10-oxo-9b,10-dihydro-4bH-indeno[1,2-b]benzofuran-9b-yl)quinoxaline-2-carboxamide], the EC50 in the data set on Poliovirus 3 was 0.035 µg/mL (≈ 0.075 µM). Moreover, the CC50 is 4.55 µg/mL (≈ 9.75 µM) in the data set “in vitro” and 4.78 µg/mL (≈ 10.2 µM) in “in vitro” (Picorana CC50).

On to `CC(C)c1ccc2c(c1)OC1(O)c3cccc(N)c3C(=O)C21NC(=O)c1ccnnc1` (stereo not drawn) [Example 276, N-(1-Amino-4b-hydroxy-7-isopropyl-10-oxo-9b,10-dihydro-4bH-indeno[1,2-b]benzofuran-9b-yl)pyridazine-4-carboxamide], for which, in the data set with Poliovirus 3, the concentration for a half-maximal effect (EC50) was less than 0.01 µg/mL. This molecule yielded a CC50 in the data set “in vitro” of more than 10 µg/mL.

As to `CC(C)c1ccc2c(c1)OC1(O)c3cccc(N)c3C(=O)C21NC(=O)c1ccc2nnnn2c1` (stereo not drawn) [Example 278, N-(1-Amino-4b-hydroxy-7-isopropyl-10-oxo-9b,10-dihydro-4bH-indeno[1,2-b]benzofuran-9b-yl)tetrazolo[1,5-a]pyridine-6-carboxamide], the EC50 in the data set on Poliovirus 3 is less than 0.01 µg/mL. The same molecule registered a CC50 in “in vitro” of more than 10 µg/mL.

For the molecule `CC(C)c1ccc2c(c1)OC1(O)c3cccc(N)c3C(=O)C21NC(=O)c1cccn2nnnc12` (stereo not drawn) [Example 279, N-(1-Amino-4b-hydroxy-7-isopropyl-10-oxo-9b,10-dihydro-4bH-indeno[1,2-b]benzofuran-9b-yl)tetrazolo[1,5-a]pyridine-8-carboxamide], the concentration for a half-maximal effect (EC50) with Poliovirus 3 came to 0.035 µg/mL (≈ 0.0767 µM). Moreover, the CC50 in “in vitro” worked out at 4.94 µg/mL (≈ 10.8 µM); in the data set “in vitro” (Picorana CC50) it was 7.88 µg/mL (≈ 17.3 µM).
